Km data for 4 compounds are collected here from publication PMC3371050, “Characterisation of a Novel White Laccase from the Deuteromycete Fungus Myrothecium verrucaria NF-05 and Its Decolourisation of Dyes” (PLoS ONE, 2012).

Like-named read-outs stand apart in the source and are kept apart here.

Common to all, as to settings: 0.2 M citric acid pH 4.0, 30°C
For assay [1], the system named is white laccase from Myrothecium verrucaria NF-05.
Assay [2] deals with T1, white laccase from Myrothecium verrucaria NF-05.
T1 construct: native extracellular enzyme purified from culture medium; about 66 kDa monomer; 3 Cu and 1 Fe per molecule; no bilirubin oxidase activity detected in the fermentation liquid
The experiment in a line: oxidation at […] nm, Lineweaver-Burk. The format is biochemical, Albifimbria verrucaria.

Assay [3] concerns white laccase from Myrothecium verrucaria NF-05. The source holds these as a separate data set.
Assay [4] deals with T1, white laccase from Myrothecium verrucaria NF-05. The experiment in a line: oxidation at […] nm, Lineweaver-Burk. Format: biochemical, Albifimbria verrucaria. This is another data set of the same source.

For `Oc1ccc(O)cc1` [hydroquinone], in assay [1], the Km was determined as 2090 µM. On to `Oc1ccccc1O` [catechol], for which the Michaelis constant (Km) in assay [2] was 329 µM. Turning to `CCn1c(=NN=c2sc3cc(S(=O)(=O)O)ccc3n2CC)sc2cc(S(=O)(=O)O)ccc21` [ABTS, 2,2′-azinobis-(3-ethylbenzothiazoline-6-sulphonic acid)], the Km in assay [3] was 85.9 µM. In the case of `COc1ccccc1O` [guaiacol], the Km in assay [4] was 312 µM.

As usually defined, the Km is the concentration of substrate that gives half-maximal velocity.
